From ChEMBL document CHEMBL3425460, “Stereoselective synthesis of 11-phenylundeca-5Z,9Z-dienoic acid and investigation of its human topoisomerase I and IIα inhibitory activity” (Bioorg Med Chem Lett, 2015)
Activity calls are given as the source filed them. No cut-off for these calls is given here.

How the values were obtained:
[1] = target: T1, DNA topoisomerase 1 (Homo sapiens, UniProt P11387); test: Inhibition of human topoisomerase 1-mediated DNA cleavage assessed as accumulation of nicked DNA by ethidium bromide staining based electrophoregram
T1 sequence (P11387 whole entry): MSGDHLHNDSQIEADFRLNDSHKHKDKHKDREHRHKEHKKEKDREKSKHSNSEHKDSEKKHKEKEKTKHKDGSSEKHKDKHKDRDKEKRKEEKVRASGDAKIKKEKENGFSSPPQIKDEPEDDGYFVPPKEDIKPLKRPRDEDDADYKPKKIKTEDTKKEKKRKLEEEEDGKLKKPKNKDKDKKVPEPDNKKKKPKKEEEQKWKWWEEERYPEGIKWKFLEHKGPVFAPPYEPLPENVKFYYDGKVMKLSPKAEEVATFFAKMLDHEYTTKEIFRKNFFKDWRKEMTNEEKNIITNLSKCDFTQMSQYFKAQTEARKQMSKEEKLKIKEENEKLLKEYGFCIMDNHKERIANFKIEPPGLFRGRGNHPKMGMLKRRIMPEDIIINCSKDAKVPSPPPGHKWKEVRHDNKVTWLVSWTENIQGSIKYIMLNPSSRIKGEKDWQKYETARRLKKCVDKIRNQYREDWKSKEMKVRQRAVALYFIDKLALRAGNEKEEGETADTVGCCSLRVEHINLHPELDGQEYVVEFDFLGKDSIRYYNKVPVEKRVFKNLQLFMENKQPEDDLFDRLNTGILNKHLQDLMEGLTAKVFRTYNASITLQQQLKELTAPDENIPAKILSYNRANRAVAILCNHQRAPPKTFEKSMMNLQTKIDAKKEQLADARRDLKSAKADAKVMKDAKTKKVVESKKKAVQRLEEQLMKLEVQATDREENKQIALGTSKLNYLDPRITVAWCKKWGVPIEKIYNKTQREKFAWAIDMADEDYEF

[2] = target: DNA topoisomerase 2-alpha (Homo sapiens) (UniProt P11388); test: Inhibition of human topoisomerase 2 alpha-mediated DNA cleavage assessed as linear form of plasmid by electrophoregram
Chain of DNA topoisomerase 2-alpha (Homo sapiens) (P11388 whole entry): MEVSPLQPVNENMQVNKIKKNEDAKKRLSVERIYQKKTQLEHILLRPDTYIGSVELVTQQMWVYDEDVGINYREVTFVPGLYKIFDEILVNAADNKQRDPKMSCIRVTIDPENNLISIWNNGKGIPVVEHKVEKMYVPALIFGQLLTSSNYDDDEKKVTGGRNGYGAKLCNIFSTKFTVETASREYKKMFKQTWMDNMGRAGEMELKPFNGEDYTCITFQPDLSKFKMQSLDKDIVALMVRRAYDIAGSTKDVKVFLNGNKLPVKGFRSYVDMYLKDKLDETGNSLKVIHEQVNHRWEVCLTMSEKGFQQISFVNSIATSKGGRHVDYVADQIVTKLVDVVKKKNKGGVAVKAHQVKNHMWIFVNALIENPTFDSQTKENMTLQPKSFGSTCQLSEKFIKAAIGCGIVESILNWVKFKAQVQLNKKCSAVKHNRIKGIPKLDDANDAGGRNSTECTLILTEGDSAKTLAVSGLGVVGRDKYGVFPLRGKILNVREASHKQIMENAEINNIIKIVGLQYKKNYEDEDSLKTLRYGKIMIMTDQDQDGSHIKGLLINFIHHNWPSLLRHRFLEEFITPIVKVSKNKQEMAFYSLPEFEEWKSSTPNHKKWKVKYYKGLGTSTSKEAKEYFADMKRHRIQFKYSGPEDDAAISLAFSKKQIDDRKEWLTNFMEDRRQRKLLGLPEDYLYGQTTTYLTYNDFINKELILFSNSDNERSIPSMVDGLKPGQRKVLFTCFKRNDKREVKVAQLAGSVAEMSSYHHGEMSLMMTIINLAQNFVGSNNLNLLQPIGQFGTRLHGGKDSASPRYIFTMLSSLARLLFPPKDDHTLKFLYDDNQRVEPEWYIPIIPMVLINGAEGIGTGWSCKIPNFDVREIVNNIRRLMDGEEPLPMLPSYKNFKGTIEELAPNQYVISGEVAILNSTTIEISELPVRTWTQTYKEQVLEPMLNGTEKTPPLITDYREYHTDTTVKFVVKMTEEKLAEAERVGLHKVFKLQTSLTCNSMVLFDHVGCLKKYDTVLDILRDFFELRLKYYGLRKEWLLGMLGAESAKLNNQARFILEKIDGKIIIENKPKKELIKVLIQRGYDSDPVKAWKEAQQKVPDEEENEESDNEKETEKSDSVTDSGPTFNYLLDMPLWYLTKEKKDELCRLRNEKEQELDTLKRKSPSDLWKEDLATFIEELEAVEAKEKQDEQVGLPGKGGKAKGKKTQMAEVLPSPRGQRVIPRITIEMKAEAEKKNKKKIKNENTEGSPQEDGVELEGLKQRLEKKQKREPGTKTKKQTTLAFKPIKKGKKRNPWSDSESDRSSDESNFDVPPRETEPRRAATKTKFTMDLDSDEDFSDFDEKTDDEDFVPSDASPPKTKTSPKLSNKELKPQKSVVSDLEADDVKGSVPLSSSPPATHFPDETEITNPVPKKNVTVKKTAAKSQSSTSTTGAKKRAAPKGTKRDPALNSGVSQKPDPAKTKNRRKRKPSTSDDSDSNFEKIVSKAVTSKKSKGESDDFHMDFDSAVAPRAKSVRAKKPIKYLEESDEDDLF

[3] = target: T2, DNA topoisomerase 1 (Homo sapiens) (UniProt P11387); details: 0.06 to 10 uM
T2 sequence (whole entry): T1 sequence (P11387 whole entry)
Description: Inhibition of human topoisomerase 1-mediated DNA cleavage assessed as accumulation of nicked DNA at 0.06 to 10 uM by ethidium bromide staining based electrophoregram

[4] = target: DNA topoisomerase 2-alpha (Homo sapiens) (UniProt P11388); test: Inhibition of human topoisomerase 2 alpha-mediated DNA cleavage assessed as accumulation of nicked DNA at 0.06 to 10 uM by electrophoregram
[5] = target: DNA topoisomerase 2-alpha (Homo sapiens) (UniProt P11388); test: Inhibition of human topoisomerase 2 alpha-mediated DNA cleavage assessed as accumulation of nicked DNA at 0.06 to 10 uM by ethidium bromide staining based electrophoregram
[6] = Induction of pHOT1 DNA (unknown origin) cleavage assessed as conversion of supercoiled DNA to linear and nicked form of DNA at 5 to 500 uM after 30 mins by gel electrophoretic mobility assay

CCCCCCCCCC/C=C\CC/C=C\CCCC(=O)O
IC50 [1]: 810 nM

O=C(O)CCC/C=C\CC/C=C\Cc1ccccc1
inhibition [2]: Dose-dependent effect
inhibition [3]: Active
IC50 [1]: 670 nM
inhibition [4]: Active
inhibition [5]: Active
Activity [6]: Active
